Results on one compound are retold here after patent US6723710B2, “Compositions for inhibiting arginase activity” (The Trustees of the University of Pennsylvania, priority 1997, dated 2004).

For assay [1], the system named is penile corpus cavernosum smooth muscle. In words: organ bath, NANC nerve-mediated relaxation of penile corpus cavernosum tissue strips. Also noted: species or system rabbit. The text has this:
Penile cavernosal tissue strips were obtained from male New Zealand white rabbits (3.0-3.5 kilogram body weight) and mounted in organ bath preparations, as described (Kim et al., 1991, J. Clin. Invest. 88:112-118). Tissues strips at optimal isometric tension were contracted using 40 nanomolar endothelin-1 and subjected to electrical field stimulation (EFS), by means of two platinum plate electrodes positioned on either side of the tissue and a current amplifier in series with a square pulse stimulator. Each stimulation period lasted 20 seconds with trains of square waves having a pulse duration of 0.5 milliseconds and a potential difference of 10 volts. Frequency was varied from 1 to 10 Hertz. For all experiments, NANC responses were isolated in tissue strips by treatment with indomethacin to inhibit vasoactive prostanoid synthesis, 10 micromolar bretylium to inhibit adrenergic neurotransmission, and 1 micromolar atropine to block muscarinic acetylcholine receptors. All tissues were first subject to EFS in the absence of ABHA, and then stimulations were repeated in the presence of increasing concentrations (0.1 to 1.0 millimolar) ABHA following a 20 minute incubation period. […] Responses were further analyzed by determining the ratios of the responses in the presence and absence of ABHA treatment.

A further assay has as its target brain arginase activity. In words: arginase activity in brain homogenate. In kind it is biochemical, opossum. The text has this:
(§1) Tissue samples of the opossum internal anal sphincter muscle (IAS), adjoining rectal tissue, liver, and brain were homogenized using an ULTRATURRAX™ tissue homogenizer (Tekamr, Cincinnati, Ohio) in a solution comprising 10 millimolar Tris-HCl, 150 millimolar KCl, and 25 millimolar MnCl2, at pH 7.4. The homogenates were dialyzed overnight against the same solution. Dialyzed homogenates were centrifuged to remove insoluble material and concentrated with Amicon CENTRICON™ 30 microconcentrators to yield stock protein preparations having protein concentrations of 2.4 milligrams per milliliter for IAS smooth muscle, 3.6 milligrams per milliliter for rectal smooth muscle, 3 milligrams per milliliter for brain, and 17.5 milligrams per milliliter for liver. Protein concentrations were estimated with the Pierce Coomassie Protein Reagent kit using bovine serum albumin as a standard.
Arginase activity in tissue homogenates was evaluated using the radioactive L-[guanidino^14C]arginine assay of Rüegg and Russell (1980, Anal. Biochem. 102:206-212). Assays were performed using a solution comprising 100 millimolar CHES-NaOH and 0.1 millimolar MnCl2 at pH 9.0. The reactions were initiated by addition of 5 microliters of tissue homogenate to 45 microliters of reaction mixture that contained the CHES buffer, the appropriate concentration of arginine (0.5 to 5 millimolar) and about 5.0×10^4 counts per minute of L-[guanidino-^14C]arginine. IAS, rectal muscle, and brain homogenates were incubated with the assay mixture at room temperature for one hour, and the liver sample was incubated for 5 minutes. […] Urea was separated from non-reacted L-[guanidino-^14C]arginine by treatment with 200 μl of 1:1 v/v slurry of DOWEX™ 50W-X8 in water, and quantitated by adding 200 microliters of the supernatant from the DOWEX™ treatment to 3 milliliters of LIQUISCENT™ (National Diagnostics) for liquid scintillation counting in a Beckman LS 5000CE counter. The data were analyzed using double-reciprocal plots of the initial velocity measurements; standard errors were determined by regression analysis. […]

Another assay concerns the target liver arginase activity. Description: arginase activity in liver homogenate. In kind it is biochemical, opossum.
Source text: as §1
(§2) Arginase activity in tissue homogenates was evaluated using the radioactive L-[guanidino^14C]arginine assay of Rüegg and Russell (1980, Anal. Biochem. 102:206-212). Assays were performed using a solution comprising 100 millimolar CHES-NaOH and 0.1 millimolar MnCl2 at pH 9.0. The reactions were initiated by addition of 5 microliters of tissue homogenate to 45 microliters of reaction mixture that contained the CHES buffer, the appropriate concentration of arginine (0.5 to 5 millimolar) and about 5.0×10^4 counts per minute of L-[guanidino-^14C]arginine. IAS, rectal muscle, and brain homogenates were incubated with the assay mixture at room temperature for one hour, and the liver sample was incubated for 5 minutes. The reactions were stopped by addition of 200 microliters of a stop solution containing 0.25 molar acetic acid, 7 molar urea, and 10 millimolar […] at pH 4.5. Arginase has essentially no activity at the low pH of the stop solution. [^14C] Urea was separated from non-reacted L-[guanidino-^14C]arginine by treatment with 200 μl of 1:1 v/v slurry of DOWEX™ 50W-X8 in water, and quantitated by adding 200 microliters of the supernatant from the DOWEX™ treatment to 3 milliliters of LIQUISCENT™ (National Diagnostics) for liquid scintillation counting in a Beckman LS 5000CE counter. The data were analyzed using double-reciprocal plots of the initial velocity measurements; standard errors were determined by regression analysis.
(§3) Assays in the presence of the inhibitors N^ω-hydroxy-L-arginine (1 to 100 micromolar) and ABHA (0.05 to 100 micromolar) were performed as described above. The amino acid D-ornithine served as a control in these experiments, since this amino acid, unlike L-omithine, is not an inhibitor of arginase.

A further assay concerns the target rectum arginase activity. Description: arginase activity in rectum homogenate. In kind it is biochemical, opossum.
Source text: as §1, §2, §3

Another assay addresses T1, rat liver arginase (Rattus norvegicus, UniProt P07824).
T1 sequence (P07824 1-323): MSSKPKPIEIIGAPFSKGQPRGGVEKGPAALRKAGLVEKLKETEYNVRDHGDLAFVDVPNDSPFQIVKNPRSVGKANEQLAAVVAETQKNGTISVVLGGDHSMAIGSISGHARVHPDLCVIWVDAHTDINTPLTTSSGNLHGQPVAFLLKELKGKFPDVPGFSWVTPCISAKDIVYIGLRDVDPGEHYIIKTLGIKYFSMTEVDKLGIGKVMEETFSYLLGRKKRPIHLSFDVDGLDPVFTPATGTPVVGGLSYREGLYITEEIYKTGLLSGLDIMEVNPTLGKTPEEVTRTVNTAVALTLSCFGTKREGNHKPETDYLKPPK
In words: radioactive L-[guanidino-14C]arginine arginase assay (Example 3). In kind it is biochemical. The settings on record: [14C-guanidino]-L-arginine assay, low inhibitor concentrations, assuming competitive inhibition; read-out: Ki (apparent). The arrangement: made in house. As to the method:
Assays were performed in 100 micromolar MnCl2, 100 millimolar CHES-NaOH (pH 9.0). The reactions were initiated by addition of 5 microliters of a circa 1 unit per milliliter enzyme solution to 45 microliters of reaction mixture containing CHES buffer, 1.4 millimolar L-arginine, about 5.0×10^4 counts per minute of L-[guanidino- ^14C]arginine, and variable concentrations of the appropriate inhibitor. After a 5-15 minute reaction time, 200 microliters of a stop solution containing 7 molar urea, 10 millimolar L-arginine, and 0.25 molar acetic acid (pH 4.5) was added to the reaction (arginase has essentially no activity under these conditions). [^14C]-Urea was separated from non-reacted L-[guanidino-^14 C]arginine by treatment with 200 microliters of a 1:1 (vol/vol) slurry of DOWEX™ 50 W-X8 in water, and quantitated by adding 200 microliters of the supernatant from the DOWEX™ treatment to 3 milliliters of LIQUISCINT™ (National Diagnostics) for liquid scintillation counting in a Beckman LS5000CE counter.

“Also recorded” adds a separate entry of the source.

What is called IC50 is the concentration that gives 50% inhibition.

Regarding `N[C@@H](CCCCB(O)O)C(=O)O` [compound 7, 2(S)-amino-6-boronohexanoic acid], in assay [1] (0.1 to 1.0 millimolar ABHA, 1 to 10 Hertz), the “enhancement of relaxation in response to EFS” value is recorded as “significant enhancement; also recorded: significantly enhanced relaxation; also recorded: statistically significant”. Further, in assay [1] (corpus cavernosum strips contracted with endothelin-1), the “relaxation in the absence of electrical stimulation” value is given as “moderate relaxation”. In addition, the Ki at brain arginase activity (arginine fixed at Km, assuming competitive inhibition, read-out: estimated Ki, brain arginase activity) was 18 nM; on liver arginase activity (arginine fixed at Km, assuming competitive inhibition, read-out: estimated Ki, liver arginase activity), 190 nM; at rectum arginase activity (arginine fixed at Km, assuming competitive inhibition, read-out: estimated Ki, rectum arginase activity) it was 26 nM; at rat liver arginase, 100 nM. For the same compound, in the assay on brain arginase activity (brain homogenate), the “times more potent than L-HO-Arg, brain” value is 800 times. For the same compound, the “times more potent than L-HO-Arg, liver” value with liver arginase activity (liver homogenate) came out at 5 times. Besides, the “potency against liver arginase activity relative to non-hepatic tissues” value in the assay on liver arginase activity (liver versus IAS, rectum, brain) was “more potent inhibitor of non-hepatic than hepatic arginase activities”. Further, the half-inhibitory concentration (IC50) on liver arginase activity (liver, read-out: IC50 for inhibition of arginase activity, liver homogenate) amounted to 440 nM; at rectum arginase activity (rectum, read-out: IC50 for inhibition of arginase activity, rectum homogenate), 50 nM. Also, the “times more potent than L-HO-Arg, rectum” value in the assay with rectum arginase activity (rectum homogenate) was determined as 840 times.
